# From US10273218B2, “BCL-3 inhibitors” (University College Cardiff Consultants Limited, priority 2014, dated 2019)
# How the values were obtained:
# [1] = tested on: human breast cancer (MDA-MB-231); assay: mouse Model 4 (tumour growth at transplantation site), MDA-MB-231; type: in vivo, mice; settings: 3.5 mg/kg intraperitoneal injection daily; MDA-MB-231 subcutaneous; caliper tumour volume; listed as compound 12
# Description: (§1) In all experiments, each compound was administered by intraperitoneally at 3.5 mg/kg.
# (§2) Another model (Model 4) studied the effect of the compound's ability to inhibit the growth of tumour cells at the transplantation site. Human tumour cell lines were injected subcutaneously into recipient mice, followed 2 days later by single daily intraperitoneal injections of a compound (3.5 mg/kg in 1% DMSO) for the entire course of the experiment. Tumour burden was monitored longitudinally for up to 12 weeks in vivo by palpation and caliper measurements of tumour volume, and subsequently histology performed on tumours at the end of the experiment.
# (§3) Model 4 tested the effect of compounds of the application to inhibit the growth of tumour cells at the transplantation site. Human tumour cell lines were injected subcutaneously into recipient mice, followed 2 days later by single daily intraperitoneal injections of Bcl3 inhibitor (3.5 mg/kg in 1% DMSO) for the entire course of the experiment. Tumour burden was monitored longitudinally for up to 12 weeks in vivo by palpation and caliper measurements of tumour volume, and subsequently histology performed on tumours at the end of the experiment.
# FIGS. 6 and 7 show the comparative effect of compound 12 (3.5 mg/kg intraperitoneal injection) on Model 4 in human breast cancer (MDA-MB-231) and human colorectal cell lines (SW480), respectively. […]
# [2] = tested on: MDA-MB-231-Luc highly metastatic human breast cancer cells; assay: in vivo metastasis mouse model, disease free survival; parameters: species or system Nude mice; settings: 3.5 mg/Kg once daily for 10 days; MDA-MB-231-Luc i.v.; monitored up to 49 days
# Description: Nude mice are injected i.v. with 200,000 highly metastatic human breast cancer cells expressing luciferase (MDA-MB-231-Luc) then are given a compound of Formula (I) or Formula (Ia) once daily for about 10 days and are monitored for tumours by total body scan using Xenogen-IVIS. Mice with a luciferase signal above background in repeated scans in any part of their torso are scored as having metastatic disease. Total light emission in the abdominal region is quantified at time points up to 49 days post surgery and plotted as mean total light yield.
# Nude mice were injected i.v. with 200,000 highly metastatic human breast cancer cells expressing luciferase (MDA-MB-231-Luc) then given 3.5 mg/Kg of compound 12, reference compound A, or Reference compound B once daily for 10 days and monitored for tumours by total body scan using Xenogen-IVIS. Mice with a luciferase signal above background in repeated scans in any part of their torso were scored as having metastatic disease. Total light emission in abdominal region was quantified at time points up to 49 days post surgery and plotted as mean total light yield. Control n=12, Reference compound A n=10, Reference compound B n=4; compound 12 n=4.
# [3] = tested on: human colorectal cell lines (SW480); assay: mouse Model 4 (tumour growth at transplantation site), SW480; type: in vivo, mice; settings: 3.5 mg/kg intraperitoneal injection daily; SW480 subcutaneous; caliper tumour volume
# Description: as §1, §2, §3
# FIGS. 6 and 7 show the comparative effect of compound 12 (3.5 mg/kg intraperitoneal injection) on Model 4 in human breast cancer (MDA-MB-231) and human colorectal cell lines (SW480), respectively.
compound,measurement,setting,value
"COc1ccc(C(=O)Nc2ccccc2C(=O)NCCN2CCOCC2)c(F)c1 [Compound 12, 2-fluoro-4-methoxy-N-(2-((2-morpholinoethyl)carbamoyl)phenyl) benzamide]",tumour growth at the transplantation (xenograft) site,[1],significant reductions in average tumour growth
same,disease free survival,[2],100%
same,average tumour growth at the transplantation site,[3],significant reductions in average tumour growth
